Measured values reported in patent US8901177B2, “Method of treating bladder disorders” (Targacept, Inc., priority 2012, dated 2014).
Entries after “also recorded” stand apart in the source; their conditions may differ.

How the values were obtained:
NMDA receptor NR1a-NR2A = NMDA receptor NR1a-NR2A (Homo sapiens, UniProt Q05586+Q12879); assay: Glutamate-evoked currents at NR1a-NR2A receptors in Xenopus oocytes (two electrode voltage-clamp); assay type: cell-based
Procedure: (§1) All experiments were carried out at receptors expressed in Xenopus oocytes using the method of cDNA expression. Currents evoked by glutamate were recorded using the standard two electrode voltage-clamp configuration (TVEC). Xenopus oocytes were prepared and injected using standard procedures.
Briefly, ovaries are harvested from Xenopus Laevis females that have been deeply anesthetized and pithed following the animal rights rule from the Geneva canton. A small piece of ovary is isolated for immediate preparation while the remaining part is placed at 4° C. in a sterile Barth solution containing in mM NaCl 88, KCl 1, NaHCO3 2.4, HEPES 10, MgSO4.7H2O 0.82, Ca(NO3)2.4H2O 0.33, CaCl2.6H2O 0.41, at pH 7.4, and supplemented with 20 μg/ml of kanamycine, 100 unit/ml penicillin and 100 μg/ml streptomycin. On the second day following dissociation, oocytes are injected with 2 ng of cDNA per oocyte containing the NR1a-NR2A or NR1a-NR2B using an automated injector (Hogg et al., J. Neurosci. Methods, 2008). […] Cells were held at −80 mV. Data were filtered at 10 Hz, captured at 100 Hz and analyzed using HiQ proprietary data acquisition and analysis software running under Matlab (Mathworks Inc.).
Oocytes expressing the NR1a-NR2A or NR1a-NR2B receptors were challenged at periodic intervals with a glutamate test pulse. Test drug was then applied during a sustained period and its effects monitored by measuring the amplitude and time course of the glutamate evoked currents.
Experiments were carried out with the NR1a-NR2A and NR1a-NR2B at least in triplicate. Positive reference compounds (ketamine and MK-801) were tested using the same protocol.
(§2) To further evaluate effects of TC-5214, experiments using sustained exposure to this compound followed by a recovery period were carried out at NR1a-NR2A and NR1a-NR2B receptors. Measurements were made with (nM) 0, 3, 10, 30, 100, 300, TC-5214 and recovery monitored during 10 minutes. In addition, the same experimental protocol will be used with cells in control conditions to assess the stability of the measurements. Effects were measured in at least three cells.
A use-dependent protocol was used to identify non-competitive inhibition of the receptors. Cells expressing the NMDA receptors were tested for their sensitivity to TC-5214 at 30 nM, using the same protocol as described above. Cells from the same batch were tested in parallel using the same incubation time with an identical concentration of TC-5214 (30 nM) but in absence of pulses during the incubation time with the compound. Two glutamate pulses were applied at the end of the incubation time, and recovery monitored as for the control conditions.

NMDA receptor NR1a-NR2B = NMDA receptor NR1a-NR2B (Homo sapiens, UniProt Q05586+Q13224); assay: Glutamate-evoked currents at NR1a-NR2B receptors in Xenopus oocytes (two electrode voltage-clamp); assay type: cell-based
Chain of NMDA receptor NR1a-NR2B (Q13224 27-1484, other chains not shown): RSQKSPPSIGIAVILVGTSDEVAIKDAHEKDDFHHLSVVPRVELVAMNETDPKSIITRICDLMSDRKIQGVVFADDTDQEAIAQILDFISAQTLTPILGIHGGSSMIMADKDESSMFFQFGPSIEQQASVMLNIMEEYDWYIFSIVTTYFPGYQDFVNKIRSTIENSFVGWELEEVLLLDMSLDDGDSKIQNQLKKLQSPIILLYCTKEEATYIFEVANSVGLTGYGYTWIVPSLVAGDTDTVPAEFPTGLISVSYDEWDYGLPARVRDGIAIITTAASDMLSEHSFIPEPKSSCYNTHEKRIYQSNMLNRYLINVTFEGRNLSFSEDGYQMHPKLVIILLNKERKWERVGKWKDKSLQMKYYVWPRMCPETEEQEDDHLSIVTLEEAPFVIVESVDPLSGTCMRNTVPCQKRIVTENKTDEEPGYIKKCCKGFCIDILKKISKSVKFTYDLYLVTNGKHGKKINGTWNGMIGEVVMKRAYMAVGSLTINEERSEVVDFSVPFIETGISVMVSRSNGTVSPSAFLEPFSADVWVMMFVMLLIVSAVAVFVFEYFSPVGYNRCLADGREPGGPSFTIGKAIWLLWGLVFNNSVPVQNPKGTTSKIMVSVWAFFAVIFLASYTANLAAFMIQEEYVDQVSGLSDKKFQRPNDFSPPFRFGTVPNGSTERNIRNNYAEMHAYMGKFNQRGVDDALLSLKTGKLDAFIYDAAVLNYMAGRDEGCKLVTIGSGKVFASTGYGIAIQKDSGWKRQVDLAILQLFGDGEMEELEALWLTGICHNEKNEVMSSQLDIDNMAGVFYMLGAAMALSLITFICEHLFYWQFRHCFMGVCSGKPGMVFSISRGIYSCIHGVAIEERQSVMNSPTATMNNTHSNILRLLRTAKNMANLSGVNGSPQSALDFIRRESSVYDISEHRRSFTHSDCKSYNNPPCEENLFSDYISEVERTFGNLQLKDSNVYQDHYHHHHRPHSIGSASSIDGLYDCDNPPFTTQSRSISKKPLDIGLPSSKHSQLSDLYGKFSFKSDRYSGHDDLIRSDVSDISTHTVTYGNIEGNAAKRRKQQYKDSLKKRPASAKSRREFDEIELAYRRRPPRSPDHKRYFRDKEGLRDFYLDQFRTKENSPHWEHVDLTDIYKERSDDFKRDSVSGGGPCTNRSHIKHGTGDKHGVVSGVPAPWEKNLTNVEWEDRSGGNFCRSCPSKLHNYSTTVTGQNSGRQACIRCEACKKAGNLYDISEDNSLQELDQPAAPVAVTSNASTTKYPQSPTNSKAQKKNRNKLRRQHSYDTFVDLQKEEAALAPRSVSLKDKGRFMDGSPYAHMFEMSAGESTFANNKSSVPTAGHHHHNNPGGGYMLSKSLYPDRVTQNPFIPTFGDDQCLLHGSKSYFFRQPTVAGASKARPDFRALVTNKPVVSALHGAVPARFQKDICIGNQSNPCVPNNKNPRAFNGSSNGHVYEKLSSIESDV
Procedure: as §1
Briefly, ovaries are harvested from Xenopus Laevis females that have been deeply anesthetized and pithed following the animal rights rule from the Geneva canton. […] Data were filtered at 10 Hz, captured at 100 Hz and analyzed using HiQ proprietary data acquisition and analysis software running under Matlab (Mathworks Inc.).
Oocytes expressing the NR1a-NR2A or NR1a-NR2B receptors were challenged at periodic intervals with a glutamate test pulse. Test drug was then applied during a sustained period and its effects monitored by measuring the amplitude and time course of the glutamate evoked currents. […]
as §2, with “In addition, the same experimental protocol will be used with cells in control conditions to assess the stability of the measurements.” left out, “cells. […]” for “cells.”

[1] = tested on: bladder function in anesthetized rats; assay: Intravesical model in anesthetized rats (increased bladder contraction frequency), cystometry; assay type: in vivo, rat; details: 1 μM and 10 μM intravesical infusion
Procedure: Female Sprague Dawley rats (200-290 g) from Charles River France, housed in 3-4 rats per cage were anesthetized with urethane (1.2 g/kg) s.c., 3 mL/kg). A polyethylene catheter was implanted into the bladder through the dome. Ureters were tied and cut. Intravesical infusion periods with saline followed by an intravesical infusion period with one of the test compounds, hexamethonium (10 μM) or dexmecamylamine (1 and 10 μM), are depicted in FIG. 7.
The intravesical anesthetized rat model is a model of increased bladder contraction frequency. The model is a “simplified” well established model used to evaluate OAB agents, recognizing that there are decreased inputs from cortical centers. This is the first known experiment using the intravesical anesthetized rat model of increased bladder contraction frequency to test dexmecamylamine for potential efficacy in treating OAB.

α4β2 = α4β2 (Homo sapiens, UniProt P17787+P43681); details: 1 μM; cited from earlier work
Chain of α4β2 (P43681 29-627 limits assumed): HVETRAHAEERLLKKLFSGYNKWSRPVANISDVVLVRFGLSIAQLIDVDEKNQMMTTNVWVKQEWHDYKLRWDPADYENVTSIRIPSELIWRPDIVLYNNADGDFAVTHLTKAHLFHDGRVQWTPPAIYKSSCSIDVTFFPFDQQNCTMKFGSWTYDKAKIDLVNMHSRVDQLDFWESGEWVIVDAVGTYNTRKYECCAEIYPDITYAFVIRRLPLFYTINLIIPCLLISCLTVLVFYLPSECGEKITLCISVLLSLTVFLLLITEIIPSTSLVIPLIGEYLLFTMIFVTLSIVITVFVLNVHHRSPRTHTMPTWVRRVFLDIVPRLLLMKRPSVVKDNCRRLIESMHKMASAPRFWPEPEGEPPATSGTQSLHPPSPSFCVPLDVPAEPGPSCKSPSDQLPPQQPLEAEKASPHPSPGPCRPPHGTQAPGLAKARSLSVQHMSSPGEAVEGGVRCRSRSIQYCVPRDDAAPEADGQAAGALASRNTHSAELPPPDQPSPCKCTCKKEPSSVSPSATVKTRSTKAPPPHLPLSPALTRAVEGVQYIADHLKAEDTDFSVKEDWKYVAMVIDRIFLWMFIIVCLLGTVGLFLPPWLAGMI
Chain of α4β2 (P17787 26-502): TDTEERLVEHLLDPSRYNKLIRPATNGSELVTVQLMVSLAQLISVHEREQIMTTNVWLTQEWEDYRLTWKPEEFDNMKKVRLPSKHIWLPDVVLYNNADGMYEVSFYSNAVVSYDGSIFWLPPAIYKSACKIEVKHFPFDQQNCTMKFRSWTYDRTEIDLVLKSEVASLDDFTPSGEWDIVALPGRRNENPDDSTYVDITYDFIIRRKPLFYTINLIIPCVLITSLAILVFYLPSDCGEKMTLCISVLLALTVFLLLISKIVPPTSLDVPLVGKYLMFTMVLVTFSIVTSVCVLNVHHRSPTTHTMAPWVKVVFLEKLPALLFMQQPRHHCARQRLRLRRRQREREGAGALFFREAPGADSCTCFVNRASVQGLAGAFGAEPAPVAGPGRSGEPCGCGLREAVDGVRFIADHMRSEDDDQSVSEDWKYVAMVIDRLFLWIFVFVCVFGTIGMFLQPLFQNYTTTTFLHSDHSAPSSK

[2] = 3, 10, 30, 100, 300 nM, Glutamate 10 μM-Glycine 1 μM

Chain of NMDA receptor NR1a-NR2A (Q12879 23-1464, other chains not shown): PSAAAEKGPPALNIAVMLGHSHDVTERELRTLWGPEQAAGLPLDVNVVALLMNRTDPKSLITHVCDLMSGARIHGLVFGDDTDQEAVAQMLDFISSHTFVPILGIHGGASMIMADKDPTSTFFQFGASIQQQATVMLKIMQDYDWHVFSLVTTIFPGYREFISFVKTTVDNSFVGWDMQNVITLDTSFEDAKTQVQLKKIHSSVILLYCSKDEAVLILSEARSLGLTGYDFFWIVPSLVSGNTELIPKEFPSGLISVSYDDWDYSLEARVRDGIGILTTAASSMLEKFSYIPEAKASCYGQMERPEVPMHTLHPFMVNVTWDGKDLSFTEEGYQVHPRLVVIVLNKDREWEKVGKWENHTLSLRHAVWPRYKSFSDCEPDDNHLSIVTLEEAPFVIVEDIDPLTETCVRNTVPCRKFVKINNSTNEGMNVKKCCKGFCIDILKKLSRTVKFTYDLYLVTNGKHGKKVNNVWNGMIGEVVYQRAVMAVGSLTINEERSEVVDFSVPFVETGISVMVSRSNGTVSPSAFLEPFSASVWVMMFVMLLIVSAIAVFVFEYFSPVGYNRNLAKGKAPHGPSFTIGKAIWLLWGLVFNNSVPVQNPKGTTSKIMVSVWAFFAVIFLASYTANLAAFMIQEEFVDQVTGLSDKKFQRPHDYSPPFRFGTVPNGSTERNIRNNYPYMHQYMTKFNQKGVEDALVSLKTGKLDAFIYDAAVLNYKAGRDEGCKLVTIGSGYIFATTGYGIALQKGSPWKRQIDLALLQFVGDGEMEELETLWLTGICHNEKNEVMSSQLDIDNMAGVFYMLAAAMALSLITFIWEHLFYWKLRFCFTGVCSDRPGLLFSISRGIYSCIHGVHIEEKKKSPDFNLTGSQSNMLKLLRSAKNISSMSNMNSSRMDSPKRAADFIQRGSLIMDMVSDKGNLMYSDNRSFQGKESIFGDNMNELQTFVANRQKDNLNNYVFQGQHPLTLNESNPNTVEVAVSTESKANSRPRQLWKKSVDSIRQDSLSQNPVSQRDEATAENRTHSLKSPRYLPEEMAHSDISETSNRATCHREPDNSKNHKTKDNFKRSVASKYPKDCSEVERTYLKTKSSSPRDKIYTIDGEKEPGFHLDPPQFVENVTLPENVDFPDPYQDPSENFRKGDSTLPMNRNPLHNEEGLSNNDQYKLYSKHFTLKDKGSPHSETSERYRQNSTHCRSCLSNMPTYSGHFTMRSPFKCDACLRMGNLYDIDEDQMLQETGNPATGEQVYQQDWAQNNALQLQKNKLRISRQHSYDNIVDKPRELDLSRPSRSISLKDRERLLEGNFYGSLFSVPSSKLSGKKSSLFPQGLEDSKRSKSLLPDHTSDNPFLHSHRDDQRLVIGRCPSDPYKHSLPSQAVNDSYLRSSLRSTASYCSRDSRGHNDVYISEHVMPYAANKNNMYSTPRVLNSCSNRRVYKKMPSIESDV

CNC1(C)[C@H]2CCC(C2)C1(C)C (stereo partly drawn) [TC-5214, (S)—N,2,3,3-tetramethylnorbornan-2-amine]
extent of inhibition over concentration range (FIG. 22) (NMDA receptor NR1a-NR2A; [2]): complete inhibition
concentration at which it potently inhibits (NMDA receptor NR1a-NR2A; FIG. 23 legend): 10 to 30 nM
recovery following wash-out (NMDA receptor NR1a-NR2A; after sustained exposure): clear evidence for recovery
extent of inhibition over concentration range (FIG. 22) (NMDA receptor NR1a-NR2B; [2]): partial inhibition
concentration at which it potently inhibits (NMDA receptor NR1a-NR2B; FIG. 23 legend): 10 to 30 nM
bladder capacity (BC) [1]: statistically significant increase
inter-contraction interval (ICI) [1]: statistically significant increase
micturition frequency (MF) [1]: statistically significant decrease
bladder contraction amplitude (AM) ([1]; listed as dexmecamylamine): no significant decrease; also recorded: no significant change
modulation of α4β2 function (α4β2): positive modulation
